Assay [1] addresses hPARG (C-terminal His6-tag) (Homo sapiens (Human), UniProt Q86W56). Nature of the assay: PARG Enzymatic Activity Assay (HTRF). In kind it is biochemical. Conditions: hPARG 65 pM final, biotinylated-NAD ribosylated PARP1 8 nM final. The method, boiled down:
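Readout is time-resolved fluorescence at 620 and 665 nm after 60 min RT detection with streptavidin-Eu cryptate and anti-6HIS-XL665; IC50 by 4-parameter fit, 1% DMSO and no-enzyme controls. Reaction: 8 nM final ribosylated PARP1 substrate for 10 min RT, following 60 min RT enzyme (65 pM)–compound preincubation in Tris pH 7.4 buffer with EDTA, DTT, KCl.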
(In general: In TR-FRET formats the signal depends on donor and acceptor labels being close together.)

The next assay concerns Kuramochi cell line. Description: Cell Viability Assay (Cell Titer-Glo, 7 days). It is filed as cell-based. Conditions: 168 h, Kuramochi cells, 7 days incubation, read-out: PARG Cell viability (IC50). The method, boiled down:
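IC50 from a four-parameter fit of CellTiter-Glo luminescence, scaled between DMSO-treated (high) and medium-only (low) wells. Kuramochi cells (400/well, RPMI/10% FBS) exposed 7 days at 37 °C to 9 concentrations, 3-fold steps, in duplicate.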
(ATP-based viability assays read luminescence as a measure of living cells.)

Each structure is given as a SMILES string.

Chain of hPARG (C-terminal His6-tag) (Q86W56 whole entry): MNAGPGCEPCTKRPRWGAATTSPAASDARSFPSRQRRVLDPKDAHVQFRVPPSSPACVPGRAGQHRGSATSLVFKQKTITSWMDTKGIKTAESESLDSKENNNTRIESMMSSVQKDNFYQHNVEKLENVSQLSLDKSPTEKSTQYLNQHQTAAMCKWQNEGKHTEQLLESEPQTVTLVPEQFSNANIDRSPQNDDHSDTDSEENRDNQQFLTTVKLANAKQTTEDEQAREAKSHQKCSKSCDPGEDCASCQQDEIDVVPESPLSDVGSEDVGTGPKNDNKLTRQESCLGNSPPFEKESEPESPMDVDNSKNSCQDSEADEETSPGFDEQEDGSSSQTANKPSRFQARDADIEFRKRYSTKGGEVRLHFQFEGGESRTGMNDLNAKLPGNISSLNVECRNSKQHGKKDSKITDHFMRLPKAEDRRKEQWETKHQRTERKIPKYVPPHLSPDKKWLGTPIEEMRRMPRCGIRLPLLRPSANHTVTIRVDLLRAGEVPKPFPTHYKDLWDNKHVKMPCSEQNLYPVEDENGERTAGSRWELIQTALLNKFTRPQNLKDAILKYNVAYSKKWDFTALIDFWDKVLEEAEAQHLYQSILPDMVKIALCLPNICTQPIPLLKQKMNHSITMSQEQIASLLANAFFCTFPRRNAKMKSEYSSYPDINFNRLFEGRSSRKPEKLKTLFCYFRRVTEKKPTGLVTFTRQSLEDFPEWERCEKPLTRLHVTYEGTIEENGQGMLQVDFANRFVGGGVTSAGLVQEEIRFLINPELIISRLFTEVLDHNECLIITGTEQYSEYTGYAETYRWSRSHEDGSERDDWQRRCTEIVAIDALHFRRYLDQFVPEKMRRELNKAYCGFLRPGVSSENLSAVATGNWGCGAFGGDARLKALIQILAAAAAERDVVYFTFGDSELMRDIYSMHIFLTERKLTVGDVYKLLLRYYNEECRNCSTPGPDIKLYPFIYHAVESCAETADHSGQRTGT

What is called IC50 is the point on the concentration scale where inhibition reaches its midpoint. On to `CN1CCN(c2ncnc3c2c2ccc(S(=O)(=O)NC4(C#N)CC4)cc2n3-c2nnc(C(F)F)s2)CC1` [Example 56, N-(1-Cyanocyclopropyl)-9-(5-(difluoromethyl)-1,3,4-thiadiazol-2-yl)-4-(4-methylpiperazin-1-yl)-9H-pyrimido[4,5-b]indole-7-sulfonamide], for which the IC50 (in assay [1]; in the assay with Kuramochi cell line) was less than 100 nM throughout.

Regarding `CC(C)C(=O)N1C[C@H](C)N(c2ncnc3c2c2ccc(S(=O)(=O)NC4(C#N)CC4)cc2n3-c2nnc(C(F)F)s2)C[C@@H]1C` [Example 57, N-(1-cyanocyclopropyl)-9-(5-(difluoromethyl)-1,3,4-thiadiazol-2-yl)-4-((2S,5S)-4-isobutyryl-2,5-dimethylpiperazin-1-yl)-9H-pyrimido[4,5-b]indole-7-sulfonamide], the IC50 (in assay [1]; in the assay on Kuramochi cell line) was 100 to 1000 nM in each case.

As to `C[C@@H]1CN(c2ncnc3c2c2ccc(S(=O)(=O)NC4(C#N)CC4)cc2n3-c2nnc(C(F)F)s2)C[C@H](C)N1C(=O)C1COC1` [Example 58, N-(1-Cyanocyclopropyl)-9-(5-(difluoromethyl)-1,3,4-thiadiazol-2-yl)-4-((3S,5R)-3,5-dimethyl-4-(oxetane-3-carbonyl)piperazin-1-yl)-9H-pyrimido[4,5-b]indole-7-sulfonamide], the IC50 (in assay [1]; in the assay with Kuramochi cell line) was less than 100 nM each time.

In the case of `C[C@@H]1CN(C(=O)N(C)C)[C@@H](C)CN1c1ncnc2c1c1ccc(S(=O)(=O)NC3(C#N)CC3)cc1n2-c1nnc(C(F)F)s1` [Example 59, (2S,5R)-4-(7-(N-(1-Cyanocyclopropyl)sulfamoyl)-9-(5-(difluoromethyl)-1,3,4-thiadiazol-2-yl)-9H-pyrimido[4,5-b]indol-4-yl)-N,N,2,5-tetramethylpiperazine-1-carboxamide], the IC50 (in assay [1]; in the assay with Kuramochi cell line) was less than 100 nM in each case.

Regarding `CC(C)C(=O)N1CCN(c2ncnc3c2c2ccc(S(=O)(=O)NC4(C#N)CC4)cc2n3-c2nnc(C(F)F)s2)C[C@H]1C` [Example 60, (R)-N-(1-cyanocyclopropyl)-9-(5-(difluoromethyl)-1,3,4-thiadiazol-2-yl)-4-(4-isobutyryl-3-methylpiperazin-1-yl)-9H-pyrimido[4,5-b]indole-7-sulfonamide], the IC50 (in assay [1]; in the assay on Kuramochi cell line) was 100 to 1000 nM throughout.

On to `CC(C)C(=O)N1CCN(c2ncnc3c2c2ccc(S(=O)(=O)NC4(C#N)CC4)cc2n3-c2nnc(C(F)F)s2)C[C@@H]1C` [Example 61, (S)-N-(1-cyanocyclopropyl)-9-(5-(difluoromethyl)-1,3,4-thiadiazol-2-yl)-4-(4-isobutyryl-3-methylpiperazin-1-yl)-9H-pyrimido[4,5-b]indole-7-sulfonamide], for which the IC50 (in assay [1]; in the assay with Kuramochi cell line) was less than 100 nM throughout.

Regarding `CC(C)C(=O)N1[C@H](C)CN(c2ncnc3c2c2ccc(S(=O)(=O)NC4(C#N)CC4)cc2n3-c2nnc(C(F)F)s2)C[C@@H]1C` [Example 62, N-(1-Cyanocyclopropyl)-9-(5-(difluoromethyl)-1,3,4-thiadiazol-2-yl)-4-((3S,5R)-4-isobutyryl-3,5-dimethylpiperazin-1-yl)-9H-pyrimido[4,5-b]indole-7-sulfonamide], the IC50 (in assay [1]; with Kuramochi cell line) was less than 100 nM in each case.

Regarding `N#CC1(NS(=O)(=O)c2ccc3c4c(N5CCN(C(=O)N6CCC6)CC5)ncnc4n(-c4nnc(C(F)F)s4)c3c2)CC1` [Example 63, 4-(4-(Azetidine-1-carbonyl)piperazin-1-yl)-N-(1-cyanocyclopropyl)-9-(5-(difluoromethyl)-1,3,4-thiadiazol-2-yl)-9H-pyrimido[4,5-b]indole-7-sulfonamide], the concentration for half-maximal inhibition (IC50) (in assay [1]; in the assay with Kuramochi cell line) was less than 100 nM throughout.

`CC(C)C(=O)N1C[C@@H](C)N(c2ncnc3c2c2ccc(S(=O)(=O)NC4(C)CC4)cc2n3-c2nnc(C(F)F)s2)C[C@@H]1C` [Example 64, 9-(5-(Difluoromethyl)-1,3,4-thiadiazol-2-yl)-4-((2R,5S)-4-isobutyryl-2,5-dimethylpiperazin-1-yl)-N-(1-methylcyclopropyl)-9H-pyrimido[4,5-b]indole-7-sulfonamide]: the half-maximal inhibitory concentration (IC50) (in assay [1]; with Kuramochi cell line) was less than 100 nM in each case.

On to `CN1CC(C(=O)N2CCN(c3ncnc4c3c3ccc(S(=O)(=O)NC5(C#N)CC5)cc3n4-c3nnc(C(F)F)s3)CC2)C1` [Example 65, N-(1-Cyanocyclopropyl)-9-(5-(difluoromethyl)-1,3,4-thiadiazol-2-yl)-4-(4-(1-methylazetidine-3-carbonyl)piperazin-1-yl)-9H-pyrimido [4,5-b]indole-7-sulfonamide], for which the concentration for half-maximal inhibition (IC50) was less than 100 nM in assay [1] and 100 to 1000 nM in the assay on Kuramochi cell line.

With `N#CC1(NS(=O)(=O)c2ccc3c4c(N5CCN(C(=O)C6COC6)CC5)ncnc4n(-c4nnc(C(F)F)s4)c3c2)CC1` [Example 66, N-(1-Cyanocyclopropyl)-9-(5-(difluoromethyl)-1,3,4-thiadiazol-2-yl)-4-(4-(oxetane-3-carbonyl)piperazin-1-yl)-9H-pyrimido[4,5-b]indole-7-sulfonamide], the IC50 (in assay [1]; in the assay on Kuramochi cell line) was less than 100 nM each time.

As for `CN1CCC(C(=O)N2CCN(c3ncnc4c3c3ccc(S(=O)(=O)NC5(C#N)CC5)cc3n4-c3nnc(C(F)F)s3)CC2)C1` (centres unmarked) [Example 67, N-(1-Cyanocyclopropyl)-9-(5-(difluoromethyl)-1,3,4-thiadiazol-2-yl)-4-(4-(1-methylpyrrolidine-3-carbonyl)piperazin-1-yl)-9H-pyrimido[4,5-b]indole-7-sulfonamide], the values for the IC50 (in assay [1]; in the assay with Kuramochi cell line) were less than 100 nM and 100 to 1000 nM, respectively.

Regarding `N#CC1(NS(=O)(=O)c2ccc3c4c(N5CCN(C(=O)C6(F)CCC6)CC5)ncnc4n(-c4nnc(C(F)F)s4)c3c2)CC1` [Example 68, N-(1-Cyanocyclopropyl)-9-(5-(difluoromethyl)-1,3,4-thiadiazol-2-yl)-4-(4-(1-fluorocyclobutane-1-carbonyl)piperazin-1-yl)-9H-pyrimido[4,5-b]indole-7-sulfonamide], the IC50 was less than 100 nM in assay [1] and 100 to 1000 nM in the assay with Kuramochi cell line.

On to `CC(C)[S+]([O-])N1CCN(c2ncnc3c2c2ccc(S(=O)(=O)NC4(C#N)CC4)cc2n3-c2nnc(C(F)F)s2)CC1` (centres unmarked) [Example 69, N-(1-Cyanocyclopropyl)-9-(5-(difluoromethyl)-1,3,4-thiadiazol-2-yl)-4-(4-(isopropylsulfinyl)piperazin-1-yl)-9H-pyrimido[4,5-b]indole-7-sulfonamide], for which the IC50 (in assay [1]; in the assay with Kuramochi cell line) was less than 100 nM each time.

Regarding `CC(C)(C)[S+]([O-])N1CCN(c2ncnc3c2c2ccc(S(=O)(=O)NC4(C#N)CC4)cc2n3-c2nnc(C(F)F)s2)CC1` (centres unmarked) [Example 70, 4-(4-(Tert-butylsulfinyl)piperazin-1-yl)-N-(1-cyanocyclopropyl)-9-(5-(difluoromethyl)-1,3,4-thiadiazol-2-yl)-9H-pyrimido[4,5-b]indole-7-sulfonamide], the half-maximal inhibitory concentration (IC50) (in assay [1]; in the assay with Kuramochi cell line) was less than 100 nM throughout.

With `N#CC1(NS(=O)(=O)c2ccc3c4c(N5CC6CN(C(=O)C7COC7)CC6C5)ncnc4n(-c4nnc(C(F)F)s4)c3c2)CC1` (centres unmarked) [Example 71, N-(1-Cyanocyclopropyl)-9-(5-(difluoromethyl)-1,3,4-thiadiazol-2-yl)-4-(5-(oxetane-3-carbonyl)hexahydropyrrolo[3,4-c]pyrrol-2(1H)-yl)-9H-pyrimido[4,5-b]indole-7-sulfonamide], the IC50 in assay [1] was less than 100 nM; with Kuramochi cell line it was 100 to 1000 nM.

Source of the values: patent US20250388589A1, “TRICYCLIC HETEROCYCLIC DERIVATIVES, COMPOSITIONS AND USES THEREOF” (Danatlas Pharmaceuticals Co., Ltd., priority 2022, published 2025).
